Test results published in PMC3202339 (2011).

Molecular target: TRPV1 (Mus musculus, UniProt Q704Y3)
Assay: whole-cell patch clamp, inhibition of capsaicin
Type: cell-based

TRPV1, sequence (Q704Y3 whole entry): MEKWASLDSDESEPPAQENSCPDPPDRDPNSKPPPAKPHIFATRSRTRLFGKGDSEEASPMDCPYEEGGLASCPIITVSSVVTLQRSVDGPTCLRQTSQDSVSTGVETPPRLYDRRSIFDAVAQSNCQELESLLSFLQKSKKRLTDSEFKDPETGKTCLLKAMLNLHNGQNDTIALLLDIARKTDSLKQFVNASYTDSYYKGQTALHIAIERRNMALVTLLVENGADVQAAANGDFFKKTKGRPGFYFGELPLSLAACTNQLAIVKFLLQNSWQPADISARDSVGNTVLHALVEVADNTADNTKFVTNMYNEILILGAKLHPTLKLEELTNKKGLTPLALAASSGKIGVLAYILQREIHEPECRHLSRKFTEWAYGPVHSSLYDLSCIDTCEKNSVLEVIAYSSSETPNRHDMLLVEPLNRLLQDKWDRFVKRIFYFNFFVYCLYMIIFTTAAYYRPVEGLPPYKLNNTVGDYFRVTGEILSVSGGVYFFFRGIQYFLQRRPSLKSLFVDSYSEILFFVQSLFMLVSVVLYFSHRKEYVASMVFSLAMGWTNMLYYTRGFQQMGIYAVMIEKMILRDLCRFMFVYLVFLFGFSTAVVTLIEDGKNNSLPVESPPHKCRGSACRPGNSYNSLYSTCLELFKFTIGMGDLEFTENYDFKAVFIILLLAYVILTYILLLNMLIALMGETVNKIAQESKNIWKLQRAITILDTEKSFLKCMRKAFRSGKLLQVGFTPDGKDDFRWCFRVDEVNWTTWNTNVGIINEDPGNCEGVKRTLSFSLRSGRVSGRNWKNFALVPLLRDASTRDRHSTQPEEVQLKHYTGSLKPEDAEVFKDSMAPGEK

## CC(C)(C)c1ccc(/C=C/C(=O)Nc2ccc3c(c2)OCCO3)cc1 [AMG9810]
  IC50: 163 nM
